This is an account of results in publication PMC5748279, “Novel Antitubercular 6-Dialkylaminopyrimidine Carboxamides from Phenotypic Whole-Cell High Throughput Screening of a SoftFocus Library: Structure–Activity Relationship and Target Identification Studies” (Journal of Medicinal Chemistry, 2017).

pIC50: −log10 of the molar value. “Also recorded” adds a separate entry of the source.

For data set [1], the system named is PrecA-LUX reporter (genotoxic compounds). The format is cell-based. To be noted: luminescence over 7 days, CIPRO control.
In data set [2] the test system is cytochrome bd oxidase knockout mutant strain (cydKO). In kind it is cell-based. Particulars: 7H9 GLU ADC medium.
In data set [3] the test system is PiniB-LUX reporter (Mtb cell wall biosynthesis). The format is cell-based. Particulars: luminescence over 7 days, INH control.
Data set [4] relates to Mycobacterium tuberculosis (H37RvMa). As to the kind of experiment: microbe, parasite or virus in culture. In kind it is cell-based. Particulars: for MIC99 7H9/ADC: 7H9/ADC medium; for MIC99 GAST/Fe: GAST/Fe medium.
Data set [5] in a line: physchem. The format is physicochemical. The procedure:
The kinetic solubility assay was performed using a miniaturised shake flask method. 10 mM stock […]
DMSO, and to spike (1:50) duplicate aqueous samples of FaSSIF (simulating fasting state biorelevant media, pH 6.5), with a final DMSO concentration of 2%. After shaking for 2 hours at 25 °C, the solutions were filtered and analysed by means of HPLC,DAD (Agilent 1200 Rapid Resolution HPLC with a diode array detector). Best fit calibration curves were constructed using the calibration standards, which were used to determine the aqueous samples’ solubility.13
4.2) Microsomal stability
The metabolic stability assay was performed in duplicate in a 96,well micro titre plate. The test compounds (0.1 µM) were incubated individually in mouse, rat and pooled human liver […]
the cofactor NADPH (1 mM). Reactions were quenched by adding 300 µL of ice cold acetonitrile containing internal standard (carbamazepine, 0.0236 µg/mL). Test compounds in the supernatant were analysed by means of LC,MS/MS (Agilent Rapid Resolution HPLC, AB SCIEX 4000 QTRAP MS) for the disappearance of parent compound. Metabolite searches were not conducted during the metabolic stability assay.14
4.3) Plasma protein binding (PPB) assay
The plasma protein binding assay was performed in a 96,well micro titre plate with pooled human plasma, spiked with test compound (5 µM). An aliquot was immediately removed and quenched using ice cold acetonitrile containing internal standard (carbamazepine, 0.0236 µg/mL), and placed in the freezer. This served as the total concentration sample. After pre,incubation (37 °C for 1 hour) duplicate aliquots of the spiked plasma were transferred to ultra,centrifugation tubes, […]

Data set [6] deals with Vero cell lines. In kind it is cell-based, African green monkey. Particulars: read-out: Cytotoxicity (IC50 on Vero cell lines). As to the method: chemosensitivity. […]. Thus only viable cells
formazan. Formazan crystals are dissolved in DMSO. The test samples were tested in triplicate on
experiment. […] Emetine was used
as the reference drug in all experiments. The initial concentration of emetine was 100 µg/mL,
lowest being 0.001 µg/mL. […] The
the cell viability (data not shown).
GraphPad Prism v.4 software.
expressing the full length hERG channel. Single cell ionic currents were measured in the […]

Take `COc1ccc(NC(=O)c2cc(N(C)Cc3ccccc3)ncn2)cc1` [Compound 1, 6-(Benzyl(methyl)amino)-N-(4-methoxyphenyl)pyrimidine-4-carboxamide]: the PrecA-LUX reporter response result in data set [1] is “delayed (Day 3 onwards) induction of luminescence”. In data set [2], the “Δcyd 7H9 GLU ADC MIC99” value is > 20 µM. For the same molecule, the PiniB-LUX reporter response result in data set [3] is “did not elicit a positive response; also recorded: no response”.
“N-(4-(4-Acetylpiperazin-1-yl)phenyl)-6-(methyl((6-(trifluoromethyl)pyridin-3-yl)methyl)amino)pyrimidine-4-carboxamide [Compound 44]”: the “MIC99 7H9/ADC” value was 4.7 µM in data set [4] and 4.7 æM in data set [4] (supplementary csv). Moreover, the results for the “MIC99 GAST/Fe” value in data set [4] and in data set [4] (supplementary csv) were 2.3 µM and 2.3 æM, respectively. In data set [4] (medium not stated), the MIC is listed as < 5 µM. In data set [5] (pH 7.4), the solubility (kinetic) at 2 h was <5 µM. Besides, the Solubility in data set [5] (supplementary csv) is on record as <5 æM. Further, in data set [6], the pIC50 is < 4.30.

Broadly, the kinetic solubility is the concentration staying in solution when a stock, usually in DMSO, is diluted into the medium. As a reminder, the pIC50 is −log10 of the IC50, conventionally taken in molar units.
